This is an account of results in patent US7253144B2, “Method for producing by cell-free protein synthesis system using thioredoxin-fused protein expression vector” (Riken, priority 2002, dated 2007).

One may read the Kd as a measure of binding affinity in units of concentration.

The target in assay [1] is thioredoxin-fused β2AR-Gs and liposome complex. Nature of the assay: Ligand binding saturation experiment with [3H]DHA on reconstituted membrane fraction. On the set-up: species or system human. The settings on record: average of three independent experiments; 0 to 25 nM [3H]DHA, 25° C., 60 minutes; read-out: binding constant (Kd value), average. As to the method:
Subsequently, PBS was added to dilute the detergent, and 10% β-dodecylmaltoside (Nacalaitesque) was added dropwise to make the final concentration 1%. […] A complex of the reconstituted thioredoxin-fused β2AR-Gs after completion of the dialysis and the liposome was centrifuged for 1 hours at 100,000×g and 4° C., and the resultant precipitation fraction (reconstituted membrane fraction) was suspended in 50 μl of an incubation buffer (75 mM Tris-HCl (pH7.4), 12.5 mM MgCl2, 2 mM EDTA).
The ligand binding saturation experiment was conducted by incubating this reconstituted membrane fraction (complex of thioredoxin-fused β2AR-Gs and liposome) together with 0 to 25 nM tritium-labeled Dihidroalprenolol ([^3H]DHA) in 200 μl as a final volume of the incubation buffer at 25° C. for 60 minutes. A competition experiment was conducted by incubating the reconstituted membrane fraction described above together with 10 nM [^3H]DHA in the presence or absence of 10^−8 to 10^−2 MAlprenolol (Sigma).

Assay [2] has as its target T1, human β2AR expressed in an insect cell (Sf9 cell) (Homo sapiens, UniProt P07550).
T1 construct: expressed in transfected cells; host or cells: Sf9 insect cells
Nature of the assay: Ligand binding saturation experiment with [3H]DHA, positive control receptor. The settings on record: n=1, read-out: binding constant (Kd value).

T1 sequence (P07550 whole entry): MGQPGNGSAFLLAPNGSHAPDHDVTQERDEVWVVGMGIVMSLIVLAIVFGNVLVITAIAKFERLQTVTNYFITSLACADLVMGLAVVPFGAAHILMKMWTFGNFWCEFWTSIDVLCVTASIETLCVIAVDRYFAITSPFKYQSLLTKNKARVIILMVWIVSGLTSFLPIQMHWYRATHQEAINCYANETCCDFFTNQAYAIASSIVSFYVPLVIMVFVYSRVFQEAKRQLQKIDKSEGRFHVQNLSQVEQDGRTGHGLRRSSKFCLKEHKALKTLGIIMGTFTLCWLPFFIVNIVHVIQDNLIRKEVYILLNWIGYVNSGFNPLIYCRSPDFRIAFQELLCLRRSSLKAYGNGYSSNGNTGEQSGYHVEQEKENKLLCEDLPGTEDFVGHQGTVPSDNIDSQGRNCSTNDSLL

On to `CCCc1ccccc1OCC(O)CNC(C)C` (centres unmarked) [[^3H]DHA, Dihidroalprenolol], for which the Kd stood at 5.5 ± 1.1 nM in assay [1] and 3.9 nM in assay [2].
